From patent US11583538B2, “Substituted pyrrolo[1,2-a]pyrazines and pyrrolo[1,2-a][1,4]diazepines as TREX1 inhibitors” (Venenum Biodesign, LLC, priority 2019, dated 2023)

Key:
human TREX1 = human TREX1 (Homo sapiens (Human), UniProt Q9NSU2); experiment: TREX1 Exonuclease Assay; assay type: biochemical
Procedure: For human TREX1, the nucleotide sequence of the gene construct was codon optimized for expression in the bacterial host. The sequence was incorporated into the pMAL-c5e vector (NEB) downstream of a solubility-promoting MBP (maltose binding protein) fusion partner. The fusion protein product was expressed in E. coli strain BL21 (DE3) (Millipore) and purified in a series of chromatographic steps. Initial steps were conducted using a dextrin sepharose affinity column followed by a Q-sepharose ion exchange column (both GE Healthcare). After the second column the MBP partner was removed by incubation with enterokinase (NEB). Further purification was carried out with the second application of a Q-sepharose column followed by a Superdex 75 (GE Healthcare) size exclusion column. Finally, a heparin sepharose column (GE Healthcare) was applied to remove contaminating nucleotides.
To evaluate the effect of compounds on TREX1 activity, test compounds were serially diluted (11-point, 3-fold) from 10 mM stock solutions and delivered to 384-well low-volume assay plates in 80 nL DMSO using an acoustic dispenser. Next, 4 μL of human TREX1 (0.5 nM), or murine TREX1 (1 nM), diluted in assay buffer (20 mM Tris pH 7.5, 5 mM MgCl2, 100 μg/mL BSA, 0.002% Triton X-100, 2 mM DTT), was added to the assay plate. After incubating for 30 minutes, 4 μL of labeled DNA oligonucleotide (500 nM) in assay buffer was added to initiate TREX1 exonuclease activity. The reaction was allowed to proceed for 45 minutes at room temperature prior to the addition of 4 μL of 150 mM EDTA to halt TREX1 activity.

[1] = system: THP1 Dual cells, ISRE Lucia reporter gene, transfected with G3-YSD DNA; experiment: Human Cellular EC50 Reporter Assay; assay type: cell-based; settings: 72 h, serum-starved cells transfected with G3-YSD 10 ng/ml, three days
Description: Example E is a cell-based assay for TREX1 inhibitors using THP1 Dual™ cells (Invivogen), a human monocyte cell line that has stable integration of an Interferon Stimulated Response Element (ISRE) Lucia reporter gene. The Lucia gene encodes a secreted luciferase reporter protein, under the control of an ISG54 minimal promoter in conjunction with five IFN-stimulated response elements. Activation of the cGAS-STING pathway in THP1 Dual™ cells leads to enhanced luciferase secretion and increased luminescence.
A cell-based assay was established using THP1 Dual™ cells (InvivoGen), a human monocyte cell line that has stable integration of an Interferon Stimulated Response Element (ISRE) Lucia reporter gene. The Lucia gene encodes a secreted luciferase reporter protein, under the control of an ISG54 minimal promoter in conjunction with five IFN-stimulated response elements. Activation of the cGAS-STING pathway in these cells leads to enhanced luciferase secretion. Three days prior to the assay, cells were transferred to a T75 flask at a density of 3.0×10^5 cells/ml in 20 ml of serum-starved media (RPMI 1640 containing 1% Heat-Inactivated FBS, 1× Glutagro, 10 mM HEPES, 1 mM sodium pyruvate, 1×Pen/Strep, 100 μg/ml Normocin, 100 μg/ml Zeocin, 10 μg/ml Blasticidin). On the day of assay cells were collected by centrifugation, washed in 1×DPBS, and resuspended in the 1% serum media at 3.3×10^5 cells/ml. An aliquot of an aqueous solution of the DNA oligonucleotide G3-YSD (InvivoGen) at 1 mg/ml was diluted 100-fold into the transfection reagent LyoVec (InvivoGen) and incubated at ambient temperature for 50 min to allow complex formation. Test compounds in DMSO were transferred to a standard 96-well tissue culture plate via acoustic dispense of 0.54 μl per well. Serum-starved cells were batch transfected with complex at a final DNA concentration of 10 ng/ml for 60 min at ambient temperature before dispensing 180 ul (60,000 cells) per well into the assay plate. The assay plate was then incubated in a humidified chamber at 37° C. in 5% CO2 for three days. An aliquot of 10 μl was removed from each well to combine with 10 μl of the luciferase detection reagent, QUANTI-Luc™ Gold (InvivoGen) in a white 384-well plate. The luminescent signal was then read using an EnVision plate reader (Perkin Elmer). An EC50 for each compound was determined by plotting the signal as a function of log molar concentration and fitting to a four parameter logistic equation. (see Table 32).

Sequence of human TREX1 (Q9NSU2 whole entry, the tested form may be a part): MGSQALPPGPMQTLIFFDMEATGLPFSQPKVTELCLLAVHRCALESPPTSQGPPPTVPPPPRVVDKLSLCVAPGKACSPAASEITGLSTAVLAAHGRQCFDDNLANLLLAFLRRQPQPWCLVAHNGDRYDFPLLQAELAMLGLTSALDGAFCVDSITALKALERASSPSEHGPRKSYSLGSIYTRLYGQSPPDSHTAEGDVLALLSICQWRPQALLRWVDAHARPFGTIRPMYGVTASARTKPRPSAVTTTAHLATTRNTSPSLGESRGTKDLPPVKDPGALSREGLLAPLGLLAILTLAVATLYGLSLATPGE

CCOc1c(CNC(=O)[C@@H](CCC(=O)O)N2CCC(CCc3ccccc3)N3C[C@H](N)C[C@H]3C2=O)ccc(Cl)c1Cl (stereo partly drawn) [Example 137]
IC50 (human TREX1): < 1000 nM | EC50 [1]: < 1000 nM

COc1c(CNC(=O)[C@@H](CCC(=O)O)N2CCC(CCc3ccccc3)N3C[C@H](N)C[C@H]3C2=O)ccc(Cl)c1Cl (stereo partly drawn) [Example 22]
IC50 (human TREX1): < 1000 nM | EC50 [1]: < 1000 nM

CC(C)Oc1c(CNC(=O)[C@@H](CCC(=O)O)N2CCC(CCc3ccccc3)N3C[C@H](N)C[C@H]3C2=O)ccc(Cl)c1Cl (stereo partly drawn) [Example 138]
IC50 (human TREX1): < 1000 nM | EC50 [1]: < 1000 nM

COc1c(CNC(=O)[C@@H](CCc2nnn[nH]2)N2CCC(CCc3ccccc3)N3C[C@H](N)C[C@H]3C2=O)ccc(Cl)c1Cl (stereo partly drawn) [Example 119]
IC50 (human TREX1): < 1000 nM | EC50 [1]: < 1000 nM

CC(C)C[C@H](C(=O)N(C)Cc1ccc(Cl)c(Cl)c1)N1CCC(CCc2ccccc2)N2C[C@H](N)C[C@H]2C1=O (stereo partly drawn) [Example 60]
IC50 (human TREX1): < 1000 nM

CC(C)C[C@H](C(=O)NCc1cccc(Cl)c1)N1CCC(CCc2ccccc2)N2C[C@H](N)C[C@H]2C1=O (stereo partly drawn) [Example 43]
IC50 (human TREX1): 1000 to 9990 nM

CC(C)C[C@H](C(=O)NS(=O)(=O)c1ccc(Cl)c(Cl)c1)N1CCC(CCc2ccccc2)N2C[C@H](N)C[C@H]2C1=O (stereo partly drawn) [Example 62]
IC50 (human TREX1): 1000 to 9990 nM

N[C@@H]1C[C@H]2C(=O)N([C@H](CCC(=O)O)C(=O)N3CCC[C@H]3c3ccc(Cl)c(Cl)c3)CCC(CCc3ccccc3)N2C1 (stereo partly drawn) [Example 27]
IC50 (human TREX1): < 1000 nM

N#CC[C@H](C(=O)NCc1ccc(Cl)cn1)N1CCC(CCc2ccccc2)N2C[C@H](N)C[C@H]2C1=O (stereo partly drawn) [Example 63, (2R)-2-((8R,9aS)-8-amino-1-oxo-5-phenethylhexahydro-1H-pyrrolo[1,2-a][1,4]diazepin-2(3H)-yl)-N-((5-chloropyridin-2-yl)methyl)-3-cyanopropanamide.HCOOH]
IC50 (human TREX1): < 1000 nM

CCOC(=O)CC[C@H](C(=O)NCc1ccc(Cl)c(Cl)c1OC)N1CCC(CCc2ccccc2)N2C[C@H](N)C[C@H]2C1=O (stereo partly drawn) [Example 102]
IC50 (human TREX1): < 1000 nM

CONC(=O)CC[C@H](C(=O)NCc1ccc(Cl)c(Cl)c1)N1CCC(CCc2ccccc2)N2C[C@H](N)C[C@H]2C1=O (stereo partly drawn) [Example 117]
IC50 (human TREX1): < 1000 nM

CCOC(=O)CC[C@H](C(=O)NCc1cc(Cl)c(Cl)cn1)N1CCC(CCc2ccccc2)N2C[C@H](N)C[C@H]2C1=O (stereo partly drawn) [Example 99]
IC50 (human TREX1): < 1000 nM

N[C@@H]1C[C@H]2C(=O)N([C@H](CCC(=O)O)C(=O)NCc3ccc(Cl)c(Cl)c3)CCC(COc3ccc(F)cc3)N2C1 (stereo partly drawn) [Example 75]
IC50 (human TREX1): < 1000 nM

N#CC[C@H](C(=O)N1CCc2c(ccc(Cl)c2Cl)C1)N1CCC(CCc2ccccc2)N2C[C@H](N)C[C@H]2C1=O (stereo partly drawn) [Example 67]
IC50 (human TREX1): 1000 to 9990 nM

COc1c(CNC(=O)[C@@H](CCC(N)=O)N2CCC(CCc3ccccc3)N3C[C@H](N)C[C@H]3C2=O)ccc(Cl)c1Cl (stereo partly drawn) [Example 106]
IC50 (human TREX1): < 1000 nM

Cc1ccc(OCC2CCN([C@H](CCC(=O)O)C(=O)NCc3ccc(Cl)c(Cl)c3)C(=O)[C@@H]3C[C@@H](N)CN23)cc1 (stereo partly drawn) [Example 73]
IC50 (human TREX1): 1000 to 9990 nM

CCOC(=O)CC[C@H](C(=O)N1CCOC[C@H]1c1ccc(Cl)c(Cl)c1)N1CCC(CCc2ccccc2)N2C[C@H](N)C[C@H]2C1=O (stereo partly drawn) [Example 96]
IC50 (human TREX1): < 1000 nM

N#CCC[C@H](C(=O)NCc1ccc(Cl)c(Cl)c1F)N1CCC(CCc2ccccc2)N2C[C@H](N)C[C@H]2C1=O (stereo partly drawn) [Example 109]
IC50 (human TREX1): < 1000 nM

N[C@@H]1C[C@H]2C(=O)N([C@H](CCC(=O)O)C(=O)NCc3ccc(Cl)c(Cl)c3)CCC(COc3ccccc3Cl)N2C1 (stereo partly drawn) [Example 78]
IC50 (human TREX1): < 1000 nM

N[C@@H]1C[C@H]2C(=O)N(c3cccn(Cc4ccc(Cl)c(Cl)c4)c3=O)CCC(CCc3ccccc3)N2C1 (stereo partly drawn) [Example 38]
IC50 (human TREX1): < 1000 nM

N[C@@H]1C[C@H]2C(=O)N([C@H](CCC(=O)O)C(=O)NCc3ccc(Cl)c(Cl)c3)CCC(COc3cnccn3)N2C1 (stereo partly drawn) [Example 80]
IC50 (human TREX1): 1000 to 9990 nM

Cc1nnc(CC[C@H](C(=O)NCc2ccc(Cl)c(Cl)c2F)N2CCC(CCc3ccccc3)N3C[C@H](N)C[C@H]3C2=O)[nH]1 (stereo partly drawn) [Example 140]
IC50 (human TREX1): < 1000 nM

CNC(=O)CC[C@H](C(=O)NCc1ccc(Cl)c(Cl)c1)N1CCC(CCc2ccccc2)N2C[C@H](N)C[C@H]2C1=O (stereo partly drawn) [Example 136]
IC50 (human TREX1): < 1000 nM

CC(C)C[C@H](C(=O)NCc1cc(Cl)cc(Cl)c1)N1CCC(CCc2ccccc2)N2C[C@H](N)C[C@H]2C1=O (stereo partly drawn) [Example 50]
IC50 (human TREX1): 1000 to 9990 nM

N[C@@H]1C[C@H]2C(=O)N([C@H](CCNS(=O)(=O)C3CC3)C(=O)NCc3ccc(Cl)c(Cl)c3)CCC(CCc3ccccc3)N2C1 (stereo partly drawn) [Example 133]
IC50 (human TREX1): < 1000 nM

N[C@@H]1C[C@H]2C(=O)N([C@@H]3CCCN(Cc4ccc(Cl)c(Cl)c4)C3=O)CCC(CCc3ccccc3)N2C1 (stereo partly drawn) [Example 35]
IC50 (human TREX1): < 1000 nM

CCN(CC)C(=O)COC(=O)CC[C@H](C(=O)NCc1ccc(Cl)c(Cl)c1)N1CCC(CCc2ccccc2)N2C[C@H](N)C[C@H]2C1=O (stereo partly drawn) [Example 88, (4R)-2-(diethylamino)-2-oxoethyl 4-((8R,9aS)-8-amino-1-oxo-5-phenethylhexahydro-1H-pyrrolo[1,2-a][1,4]diazepin-2(3H)-yl)-5-((3,4-dichlorobenzyl)amino)-5-oxopentanoate]
IC50 (human TREX1): < 1000 nM

N[C@@H]1C[C@H]2C(=O)N([C@@H]3CCCN(S(=O)(=O)c4ccccc4)C3)CCC(CCc3ccccc3)N2C1 (stereo partly drawn) [Example 84]
IC50 (human TREX1): 10000 to 100000 nM

N#CC[C@H](C(=O)NCc1ccc(Cl)c(Cl)c1)N1CCC(CCc2ccccc2)N2C[C@H](N)C[C@H]2C1=O (stereo partly drawn) [Example 112]
IC50 (human TREX1): < 1000 nM

N[C@@H]1C[C@H]2C(=O)N([C@H]3CCCN(C(=O)c4ccc(Cl)c(Cl)c4)C3)CCC(CCc3ccccc3)N2C1 (stereo partly drawn) [Example 87]
IC50 (human TREX1): 10000 to 100000 nM

NC(=O)CC[C@H](C(=O)NCc1ccc(Cl)c(Cl)c1F)N1CCC(CCc2ccccc2)N2C[C@H](N)C[C@H]2C1=O (stereo partly drawn) [Example 107]
IC50 (human TREX1): < 1000 nM

CC(C)C[C@H](C(=O)NCc1ccc(F)c(F)c1)N1CCC(CCc2ccccc2)N2C[C@H](N)C[C@H]2C1=O (stereo partly drawn) [Example 53]
IC50 (human TREX1): < 1000 nM

N#CC[C@H](C(=O)NCc1ccc(Cl)c(Cl)n1)N1CCC(CCc2ccccc2)N2C[C@H](N)C[C@H]2C1=O (stereo partly drawn) [Example 113]
IC50 (human TREX1): < 1000 nM

CC(C)C[C@H](C(=O)NCc1ccc(C#N)cc1)N1CCC(CCc2ccccc2)N2C[C@H](N)C[C@H]2C1=O (stereo partly drawn) [Example 49]
IC50 (human TREX1): < 1000 nM

CCOC(=O)CC[C@H](C(=O)N1CCC[C@H]1c1ccc(Cl)c(Cl)c1)N1CCC(CCc2ccccc2)N2C[C@H](N)C[C@H]2C1=O (stereo partly drawn) [Example 98]
IC50 (human TREX1): < 1000 nM

N[C@@H]1C[C@H]2C(=O)N([C@H](CCC(=O)O)C(=O)NCc3cc(Cl)c(Cl)cn3)CCC(CCc3ccccc3)N2C1 (stereo partly drawn) [Example 28]
IC50 (human TREX1): < 1000 nM

N[C@@H]1C[C@H]2C(=O)N([C@H](CCC(=O)O)C(=O)N3CCOC[C@H]3c3ccc(Cl)c(Cl)c3)CCC(CCc3ccccc3)N2C1 (stereo partly drawn) [Example 32]
IC50 (human TREX1): < 1000 nM

N[C@@H]1C[C@H]2C(=O)N([C@H](CCC(=O)O)C(=O)N3CCCC[C@H]3c3ccc(Cl)c(Cl)c3)CCC(CCc3ccccc3)N2C1 (stereo partly drawn) [Example 26]
IC50 (human TREX1): < 1000 nM

N[C@@H]1C[C@H]2C(=O)N([C@H](CCC(=O)NO)C(=O)NCc3ccc(Cl)c(Cl)c3)CCC(COc3ccc(F)cc3)N2C1 (stereo partly drawn) [Example 115]
IC50 (human TREX1): < 1000 nM

CCOC(=O)N[C@@H]1C[C@H]2C(=O)N([C@H](CCC(=O)O)C(=O)NCc3ccc(Cl)c(Cl)c3)CCC(CCc3ccccc3)N2C1 (stereo partly drawn) [Example 143]
IC50 (human TREX1): 10000 to 100000 nM

COc1ccc(CNC(=O)[C@@H](CC(C)C)N2CCC(CCc3ccccc3)N3C[C@H](N)C[C@H]3C2=O)cc1Cl (stereo partly drawn) [Example 58]
IC50 (human TREX1): < 1000 nM
